Source: US5260447A, “Polyhydroxycyclopentane derivatives, their preparation and their therapeutic use” (Sankyo Company, Limited, priority 1992, dated 1993)

Experiments:
rat sucrase = molecular target: T1, rat sucrase (Rattus norvegicus, UniProt P23739); experiment: Inhibitory activity against rat sucrase (brush border membrane enzyme of rat small intestine, glucose liberated at 492 nm); type: biochemical, rat (Wistar strain); settings: pH 6.2, 37°, 20 minutes; substrate sucrose; read-out: concentration required to inhibit the activity of rat sucrase by 50% (IC50) (converted)
T1 construct: a brush border membrane enzyme solution of a rat small intestine was prepared from the small intestines; from tissue; host or cells: small intestine brush border membrane, male Wistar rats
T1 sequence (P23739 1014-1841 limits assumed): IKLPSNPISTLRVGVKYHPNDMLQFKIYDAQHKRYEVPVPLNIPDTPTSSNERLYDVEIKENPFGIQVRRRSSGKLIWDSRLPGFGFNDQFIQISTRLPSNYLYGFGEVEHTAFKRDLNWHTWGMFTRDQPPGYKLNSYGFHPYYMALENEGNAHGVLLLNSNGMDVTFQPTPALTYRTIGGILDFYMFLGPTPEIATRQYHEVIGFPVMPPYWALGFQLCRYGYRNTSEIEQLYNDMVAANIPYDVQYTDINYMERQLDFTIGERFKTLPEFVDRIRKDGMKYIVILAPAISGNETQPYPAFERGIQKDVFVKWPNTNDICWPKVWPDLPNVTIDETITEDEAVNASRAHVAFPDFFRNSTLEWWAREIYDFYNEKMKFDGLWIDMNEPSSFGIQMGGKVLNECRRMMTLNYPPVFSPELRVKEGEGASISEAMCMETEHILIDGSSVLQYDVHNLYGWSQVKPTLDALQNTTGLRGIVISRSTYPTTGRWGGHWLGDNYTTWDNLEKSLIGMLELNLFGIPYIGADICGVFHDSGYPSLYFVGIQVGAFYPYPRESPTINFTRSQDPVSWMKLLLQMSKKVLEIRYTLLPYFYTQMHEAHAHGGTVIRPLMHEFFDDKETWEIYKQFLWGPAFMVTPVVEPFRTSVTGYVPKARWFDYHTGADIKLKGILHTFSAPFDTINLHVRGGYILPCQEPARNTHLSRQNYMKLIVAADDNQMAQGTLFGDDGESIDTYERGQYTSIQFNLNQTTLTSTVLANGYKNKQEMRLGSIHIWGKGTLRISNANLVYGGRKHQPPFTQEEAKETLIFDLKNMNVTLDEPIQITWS
T1 sequence (P23739 1-1013 partner limits assumed): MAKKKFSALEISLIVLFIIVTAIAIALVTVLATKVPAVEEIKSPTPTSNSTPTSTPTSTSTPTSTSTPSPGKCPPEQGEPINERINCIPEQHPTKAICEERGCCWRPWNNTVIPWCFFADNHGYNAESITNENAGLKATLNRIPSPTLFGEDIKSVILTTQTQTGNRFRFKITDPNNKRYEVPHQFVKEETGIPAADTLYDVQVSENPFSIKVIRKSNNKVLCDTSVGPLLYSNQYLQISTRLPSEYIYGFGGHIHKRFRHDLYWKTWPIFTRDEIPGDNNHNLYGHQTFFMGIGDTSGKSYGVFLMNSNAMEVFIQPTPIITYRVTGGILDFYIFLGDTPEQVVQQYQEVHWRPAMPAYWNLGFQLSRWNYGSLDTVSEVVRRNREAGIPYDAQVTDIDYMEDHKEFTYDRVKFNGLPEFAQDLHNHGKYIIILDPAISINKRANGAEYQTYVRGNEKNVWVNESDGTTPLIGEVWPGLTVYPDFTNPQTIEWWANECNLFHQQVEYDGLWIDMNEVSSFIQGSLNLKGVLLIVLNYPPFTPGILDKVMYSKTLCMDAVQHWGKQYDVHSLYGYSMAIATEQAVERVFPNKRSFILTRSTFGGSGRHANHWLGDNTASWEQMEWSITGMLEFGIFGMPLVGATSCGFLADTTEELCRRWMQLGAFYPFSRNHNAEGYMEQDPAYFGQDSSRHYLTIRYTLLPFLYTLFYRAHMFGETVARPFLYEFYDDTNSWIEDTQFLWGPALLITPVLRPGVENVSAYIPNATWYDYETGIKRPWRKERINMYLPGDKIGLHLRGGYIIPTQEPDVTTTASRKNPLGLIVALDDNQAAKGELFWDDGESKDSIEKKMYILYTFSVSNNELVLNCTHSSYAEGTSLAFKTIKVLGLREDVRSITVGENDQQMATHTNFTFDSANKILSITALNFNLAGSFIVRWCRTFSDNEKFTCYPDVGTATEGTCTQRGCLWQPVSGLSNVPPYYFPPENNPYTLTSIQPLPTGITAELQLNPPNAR
Procedure: Inhibitory activity of 2-amino-4-(hydroxymethyl)-3a-5,6,6a-tetrahydro-4H-cyclopent[d]oxazole-4,5,6-triol [compound (II)] against rat sucrase
According to the method of M. Kessler et al. Biochimica et Biophysica Acta, 506, 136-154(1978)], a brush border membrane enzyme solution of a rat small intestine was prepared from the small intestines of three male rats of the Wistar strain and suspended in 3 ml of physiological saline.
A sample of 4-aminoantipyrine (A 4382) was purchased from Sigma Chemical Co., and samples of peroxidase (Grade I) and glucose oxidase (Grade I) were purchased from Boehringer Mannheim Co. A buffer solution (pH 6.2) comprising 20 mM of citric acid and 40 mM of disodium phosphate was used as the diluent in the following experiment.
Each well of a micro-titer plate with 96 wells (a product of Falcon Co.) was filled with 130 μl in all of a mixture which contained 0.2 mg of bovine serum albumin (Sigma, A 7906), 3 units of glucose oxidase, 0.132 unit of peroxidase, 20 μg of 4-aminoantipyrine, 40 μg of phenol, 3 μ mole of sucrose and a test compound. To the well were added 20 μl of 100-fold diluted solution of a brush border membrane enzyme solution of rat small intestine. The mixture was allowed to react at 37° for 20 minutes and the quantity of glucose liberated was monitored by absorbance at 492 nm. […]

Solubility = type: physicochemical
β-glucosidase = experiment: Inhibitory activity against β-glucosidase (p-nitrophenyl-β-D-glucopyranoside hydrolysis, absorbance at 405 nm); type: biochemical; settings: pH 5.6, 37° C., 15 min preincubation, 20 min reaction; enzyme from almonds
Text: Inhibitory activity of 5-amino-1-(hydroxymethyl)cyclopentane-1,2,3,4-tetraol against β-glucosidase
Samples of β-glucosidase (separated from almonds), p-nitrophenyl-β-D-glucopyranoside, deoxynojirimycin and castanospermine used in this experiment were all purchased from Sigma Chemicals Co.
The test compounds used were 5-amino-1-(hydroxymethyl)cyclopentane-1,2,3,4-tetraol [compound (I)], and deoxynojirimycin or castanospermine, both of which are known compounds having this type of activity.
A mixture of 0.01 unit/ml of β-glucosidase and 100 μl of a buffer solution (pH 5.6) comprising 20 mM of citric acid, 40 mM of disodium phosphate and the compound under test was allowed to stand at 37° C. for 15 minutes. At the end of this time, 50 μl of a buffer solution containing 3 mg/ml of p-nitrophenyl-β-D-glucopyranoside were added to the mixture, which was then allowed to react at 37° C. for 20 minutes. 20 μl of a 1M glycine/sodium hydroxide buffer solution (pH 10.4) were added to the reaction mixture, and the quantity of p-nitrophenol liberated was monitored by absorbance at 405 nm. Table 7 lists the concentrations β-glucosidase by 50% (IC50).

silkworm trehalase = molecular target: T2, silkworm trehalase (Bombyx mori, UniProt P32358); experiment: Inhibitory activity against silkworm trehalase (crude enzyme from silkworm larvae, glucose determination); type: biochemical; settings: pH 5.6, 37° C., 15 min preincubation, 15 min reaction; substrate trehalose; read-out: concentration needed to inhibit the enzyme activity by 50% (IC50), silkworm trehalase (converted)
T2 construct: Ten silkworm larvae of the fifth instar (total weight 44 g) were homogenized; from tissue; host or cells: whole silkworm larvae, fifth instar; acetone precipitate of homogenate supernatant
T2 sequence (P32358 16-579): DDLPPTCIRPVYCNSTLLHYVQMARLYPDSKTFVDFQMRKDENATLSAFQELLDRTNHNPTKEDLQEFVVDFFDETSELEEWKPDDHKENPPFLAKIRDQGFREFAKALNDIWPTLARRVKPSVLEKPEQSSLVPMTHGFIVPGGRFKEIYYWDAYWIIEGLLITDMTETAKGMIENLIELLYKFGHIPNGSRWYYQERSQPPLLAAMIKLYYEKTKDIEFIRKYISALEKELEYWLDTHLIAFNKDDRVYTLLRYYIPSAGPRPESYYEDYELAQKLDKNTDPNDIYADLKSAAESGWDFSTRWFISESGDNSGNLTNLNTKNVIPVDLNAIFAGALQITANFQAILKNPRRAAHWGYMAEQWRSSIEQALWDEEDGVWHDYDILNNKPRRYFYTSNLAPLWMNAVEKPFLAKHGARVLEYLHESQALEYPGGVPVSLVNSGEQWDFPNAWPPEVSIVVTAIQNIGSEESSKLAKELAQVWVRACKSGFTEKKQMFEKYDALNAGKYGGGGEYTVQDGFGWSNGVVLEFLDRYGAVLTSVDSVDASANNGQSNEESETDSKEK
Procedure: Inhibitory activity of trehazolin against silkworm trehalase
Ten silkworm larvae of the fifth instar (total weight 44 g) were homogenized using a Polytrone (trade mark) homogenizer in 120 ml of a buffer solution (pH 5.6) prepared using 20 mM of citric acid and 40 mM of disodium phosphate for 2 minutes, whilst ice-cooling (the same buffer solution was also used hereafter). The homogenized mixture was then centrifuged at a speed of 6,000 rpm for 10 minutes, and the supernatant was separated. 240 ml of acetone were added to 120 ml of the supernatant, whist ice-cooling and stirring, and the resulting mixture was centrifuged at a speed of 9,000 rpm for 20 minutes. The sediment was separated and dissolved in water, and the resulting solution was lyophilized, to give 2.0 g of the crude enzyme.
130 μl of the above buffer solution, 50 μl of a sample solution containing trehazolin at various concentrations and 50 μl of a silkworm enzyme solution prepared as described above and containing 4 mg/ml of the enzyme were placed in a test-tube, and the mixture was shaken on a water bath kept at 37° C. for 15 minutes. […]
The reaction was conducted using glucose C-test Wako (a product of Wako Pure Chemical Industries Ltd.) and 10-fold quantities of the sample solution over that of the standard procedure.

SMILES: NC1=NC2C(O1)C(O)C(O)C2(O)CO (stereo not drawn) [(II), 2-amino-4-(hydroxymethyl)-3a,5,6,6a-tetrahydro-4H-cyclopent[d]oxazole-4,5,6-triol]
- IC50 (rat sucrase): 88.2 µM
- Solubility in acetone (Solubility): insoluble
- Solubility in chloroform (Solubility): insoluble
- Solubility in water (Solubility): soluble

SMILES: O[C@H]1[C@H](O)[C@@H](O)CN2CC[C@H](O)[C@H]12 [Castanospermine, castanospermine]
- 50% inhibitory concentration of β-glucosidase (IC50) (β-glucosidase): 4.3 µg/mL

SMILES: NC1C(O)C(O)C(O)C1(O)CO (stereo not drawn) [Compound (I), 5-amino-1-(hydroxymethyl)cyclopentane-1,2,3,4-tetraol]
- 50% inhibitory concentration of β-glucosidase (IC50) (β-glucosidase): 1.0 µg/mL
- Solubility in acetone (Solubility): insoluble
- Solubility in chloroform (Solubility): insoluble
- Solubility in water (Solubility): soluble

SMILES: OC[C@H]1NC[C@H](O)[C@@H](O)[C@@H]1O [Deoxynojirimycin, deoxynojirimycin]
- 50% inhibitory concentration of β-glucosidase (IC50) (β-glucosidase): 15 µg/mL

SMILES: OCC1OC(NC2=NC3C(O2)C(O)C(O)C3(O)CO)C(O)C(O)C1O (stereo not drawn) [trehazolin, reference compound]
- IC50 (silkworm trehalase): 0.00546 µM
- Solubility in acetone (Solubility): insoluble
- Solubility in chloroform (Solubility): insoluble
- Solubility in methanol (Solubility; methanol): soluble
- Solubility in water (Solubility): soluble
